# From article PMC12040169 (PLOS Biology, 2025)
# Test: in vitro
# Settings: human, hela cells, % viability
smiles,measurement,setting,value
Cc1c(C(=O)O)sc(S(=O)(=O)N2CCN(C(=O)CCc3cccs3)CC2)c1C(=O)O [CBK297135],"viability at 28.5 h, 10 µM",,105%
O=C(O)c1cn(C2CC2)c2cc(N3CCN(C(=O)Cc4ccccc4Cl)CC3)c(F)cc2c1=O [CBK297136],"viability at 28.5 h, 10 µM",,90.4%
CCC(C)C(NC(=O)C1CCN(S(=O)(=O)c2ccc(OC)c(OC)c2)CC1)C(=O)O (stereo not drawn) [CBK297140],"viability at 28.5 h, 10 µM",,90.7%
CC(C)OCc1ccc(C(=O)N2CCC(C(=O)O)CC2)cc1 [CBK297141],"viability at 28.5 h, 10 µM",,83.2%
CC(Sc1nc(C2CC2)n(-c2ccccc2)n1)C(=O)N1CCNC1=O (stereo not drawn) [CBK297144],"viability at 28.5 h, 10 µM",,97.2%
Cc1ccccc1C(=O)N1CCN(S(=O)(=O)c2sc(C(=O)O)c(C)c2C(=O)O)CC1 [CBK297146],"viability at 28.5 h, 10 µM",,102%
O=C(C1CCN(S(=O)(=O)c2cccs2)CC1)N1CCC(C(=O)O)(c2ccccc2)CC1 [CBK297147],"viability at 28.5 h, 10 µM","bulk resorufin, single well",88%
Cc1c(C(=O)O)sc(S(=O)(=O)N2CCN(C(=O)Cc3ccccc3)CC2)c1C(=O)O [CBK297148],"viability at 28.5 h, 10 µM",,96.2%
Cc1ccc(C(=O)N2CCN(S(=O)(=O)c3sc(C(=O)O)c(C)c3C(=O)O)CC2)s1 [CBK297150],"viability at 28.5 h, 10 µM",,84.8%
Cc1ccc(OCC(=O)N2CCN(C(=O)c3cccs3)CC2)c([N+](=O)[O-])n1 [CBK297152],"viability at 28.5 h, 10 µM",,94.4%
CC(=O)c1ccc(OCc2nc(N)nc(Nc3ccccc3)n2)cc1 [CBK297155],"viability at 28.5 h, 10 µM",,83.1%
COc1ccc(-c2cc3ncnc(Sc4nnnn4CC4CCCO4)c3s2)cc1 (stereo not drawn) [CBK297157],"viability at 28.5 h, 10 µM",,95.9%
O=C(CSc1nnnn1C1CC1)c1cc2ccccc2o1 [CBK297158],"viability at 28.5 h, 10 µM",,90.7%
O=C(O)c1c2c(nc3ccccc13)C(=Cc1ccc3c(c1)OCCO3)CC2 [CBK297479],"viability at 28.5 h, 10 µM",,96.3%
Cc1ccn2c(NS(=O)(=O)c3ccc(CCC(=O)O)cc3)c(-c3cccs3)nc2c1 [CBK297480],"viability at 28.5 h, 10 µM",,110%
COc1ccc(C(=O)O)cc1S(=O)(=O)Nc1c(-c2cccs2)nc2cc(C)ccn12 [CBK297484],"viability at 28.5 h, 10 µM",,82.9%
COc1cc(C(=O)NCC(=O)O)cc(Cl)c1OCC(C)C [CBK297485],"viability at 28.5 h, 10 µM",,80.8%
CCc1ccc2c(COC(=O)c3cccnc3SC)cc(=O)oc2c1 [CBK297486],"viability at 28.5 h, 10 µM",,85%
Nc1c(N(CCO)C(=O)C2CCCC2)c(=O)[nH]c(=O)n1Cc1ccccc1 [CBK297490],"viability at 28.5 h, 10 µM",,97.3%
CCCCCCn1nc(C(=O)NCC(=O)O)c2ccccc2c1=O [CBK297491],"viability at 28.5 h, 10 µM",,97.3%
CCOc1ccc(CN(C)C(=O)Cn2nc(C(=O)O)c3ccccc3c2=O)cc1 [CBK297492],"viability at 28.5 h, 10 µM",,83.8%
COc1ccc(CCNC(=O)CSC(C)C(=O)O)cc1 (stereo not drawn) [CBK297493],"viability at 28.5 h, 10 µM",,81.4%
COc1ccc(-c2nnc(SCC(=O)c3ccc(F)cc3)n2C2CCCCC2C)cc1 (stereo not drawn) [CBK297494],"viability at 28.5 h, 10 µM",,89.8%
O=C(O)c1cc(C=Cc2ccc(Cl)c([N+](=O)[O-])c2)nc2ccccc12 [CBK297495],"viability at 28.5 h, 10 µM",,104%
CCN(CC)CCn1c2ccccc2c2nc3cc(C(=O)O)ccc3nc21 [CBK297496],"viability at 28.5 h, 10 µM",,101%
CC(C)(C)N(Cc1ccccc1)C(=O)Cn1nc(C(=O)O)c2ccccc2c1=O [CBK297498],"viability at 28.5 h, 10 µM",,86%
O=C(Nc1ccc(S(=O)(=O)N2CCCC2)cc1)C1CC(=O)N(Cc2ccco2)C1 (stereo not drawn) [CBK297500],"viability at 28.5 h, 10 µM",,92.5%
CCOc1ccc(N(CCC#N)C(=O)Cn2nc(C(=O)O)c3ccccc3c2=O)cc1 [CBK297502],"viability at 28.5 h, 10 µM",,85.2%
COc1cc(C=C2SC(=S)N(CCCCCC(=O)O)C2=O)cc(OC)c1 [CBK297505],"viability at 28.5 h, 10 µM",,98.1%
O=C(c1cc2ccccc2o1)N1CCN(c2cccc(C(F)(F)F)c2)CC1 [CBK297507],"viability at 28.5 h, 10 µM",,96.8%
COc1ccc(-c2nnc(SCC(=O)Nc3cc(C)on3)n2C2CCCCC2)cc1 [CBK297510],"viability at 28.5 h, 10 µM",,84.1%
O=[N+]([O-])c1cccc(Cn2c(CO)nc3ccccc32)c1 [CBK297515],"viability at 28.5 h, 10 µM",,95.4%
CCC(C)c1ccccc1NC(=O)c1cc(=O)[nH]c2ccccc12 (stereo not drawn) [CBK297516],"viability at 28.5 h, 10 µM",,89.6%
COCCn1c(SCc2cc(=O)oc3cc(C)ccc23)nnc1-c1ccc(Cl)cc1 [CBK297517],"viability at 28.5 h, 10 µM",,87.8%
COc1ccc(-c2nnc(SCc3cc(=O)oc4cc(C)ccc34)n2CC(C)C)cc1 [CBK297518],"viability at 28.5 h, 10 µM",,81.3%
COc1ccc(OC)c(NC(=O)c2cc(=O)[nH]c3ccccc23)c1 [CBK297521],"viability at 28.5 h, 10 µM",,92.7%
COC(=O)c1ccc(CSc2nnc(-c3ccc(OC)cc3)n2C(C)C)o1 [CBK297523],"viability at 28.5 h, 10 µM",,96.4%
CC(=O)N1CC(C(=O)Nc2ccccc2Cc2ccccc2)Oc2ccccc21 (stereo not drawn) [CBK297525],"viability at 28.5 h, 10 µM",,88.6%
CCS(=O)(=O)c1ccc(O)c(NS(=O)(=O)c2cc(C(=O)O)ccc2Cl)c1 [CBK297531],"viability at 28.5 h, 10 µM",,91.1%
O=C(O)c1cc(C=Cc2ccc(OC(F)F)cc2)nc2ccccc12 [CBK297532],"viability at 28.5 h, 10 µM",,85.3%
C[C@H](Nc1ccc(C(F)(F)F)cc1[N+](=O)[O-])C(=O)NCCOc1ccccc1F [CBK297535],"viability at 28.5 h, 10 µM",,106%
O=C(OCc1cc([N+](=O)[O-])cc2c1OCOC2)c1ccco1 [CBK297537],"viability at 28.5 h, 10 µM",,97.9%
O=C(Cn1nc(C(=O)O)c2ccccc2c1=O)c1ccc(C2CCCCC2)cc1 [CBK297538],"viability at 28.5 h, 10 µM",,89.5%
Cc1ccc(-n2c(SCC(=O)N3CCC(C(=O)O)CC3)nc3ccccc3c2=O)cc1C [CBK297540],"viability at 28.5 h, 10 µM",,81.4%
Cc1nc(SCC(=O)c2cc(Cl)ccc2Cl)c2ccccc2n1 [CBK297543],"viability at 28.5 h, 10 µM",,100%
Cc1ccc(NC(=S)NCCNc2ccccn2)cc1Cl [CBK297544],"viability at 28.5 h, 10 µM",,105%
Cc1cc(=O)n2c(C(=O)Nc3cccc(C(=O)O)c3)c(C(=O)Nc3cccc(C)c3C)sc2n1 [CBK297545],"viability at 28.5 h, 10 µM",,101%
Cc1cc(=O)n2c(C(=O)Nc3ccc(C(=O)O)cc3)c(C(=O)Nc3cccc(C)c3C)sc2n1 [CBK297547],"viability at 28.5 h, 10 µM",,89.5%
CC1Cc2ccccc2N1C(=O)Cn1c(CCCO)nc2ccccc21 (stereo not drawn) [CBK297548],"viability at 28.5 h, 10 µM",,86.1%
Cc1ccc(Cn2nc(C)c(C(=O)OCc3cc(=O)n4ccccc4n3)c2Cl)cc1 [CBK297550],"viability at 28.5 h, 10 µM",,85.8%
O=C(O)CCN1C(=O)C(=Cc2ccc(OCc3ccccc3)cc2)c2ccccc2C1=O [CBK297552],"viability at 28.5 h, 10 µM",,105%
CCc1ccc(NC(=O)CNc2cc(C)ccc2OC)cc1 [CBK297553],"viability at 28.5 h, 10 µM",,107%
CCCCn1c(CSc2ncccc2C(=O)O)nc2cc(S(=O)(=O)N3CCOCC3)ccc21 [CBK297558],"viability at 28.5 h, 10 µM",,84.1%
Cc1nnc(CNC(=O)c2cc(-c3ccc(Cl)cc3)nc3ccccc23)o1 [CBK297717],"viability at 28.5 h, 10 µM",,109%
Cc1ccccc1CN1CCCN(C(=O)CCNC(=O)c2ccco2)CC1 [CBK297718],"viability at 28.5 h, 10 µM",,103%
O=C(NCc1ccc(F)cc1)c1ccc(Cn2ccnc2)cc1 [CBK297719],"viability at 28.5 h, 10 µM",,96.3%
CC(Nc1cc(Cl)c(C(F)(F)F)cc1[N+](=O)[O-])c1ccc2[nH]c(=O)[nH]c2c1 (stereo not drawn) [CBK297721],"viability at 28.5 h, 10 µM",,86.7%
CCOCN(C(=O)Cn1c(C(C)O)nc2ccccc21)c1c(C)cccc1CC (stereo not drawn) [CBK297722],"viability at 28.5 h, 10 µM",,87.6%
Cc1ccc(C)c(C2C(C(=O)c3ccccc3Cl)=C(O)C(=O)N2c2ccc(CC(=O)O)cc2)c1 (stereo not drawn) [CBK297723],"viability at 28.5 h, 10 µM",,90.7%
CSc1nc2ccc(Nc3cc(C)nc4ncnn34)cc2s1 [CBK297724],"viability at 28.5 h, 10 µM",,105%
CN(Cc1cccnc1)C(=O)Cc1ccc(-n2cccn2)cc1 [CBK297726],"viability at 28.5 h, 10 µM",,85.6%
C#CCNS(=O)(=O)c1ccc(C(=O)Nc2ccnn2Cc2ccccc2)cc1 [CBK297727],"viability at 28.5 h, 10 µM",,96.4%
OCCCc1nc2ccccc2n1CCOc1ccccc1 [CBK297728],"viability at 28.5 h, 10 µM",,97.8%
O=C(Nc1cccc(N2CCCC2=O)c1)c1ccccc1Nc1ccccc1 [CBK297729],"viability at 28.5 h, 10 µM",,85.8%
Cc1n[nH]c(-c2ccccc2NC(=O)Cc2sc(C)nc2-c2cccs2)n1 [CBK297737],"viability at 28.5 h, 10 µM",,88.5%
CCCc1n[nH]c(=S)n1CC(=O)NCc1ccc(N2CC(C)OC(C)C2)nc1 (stereo not drawn) [CBK297741],"viability at 28.5 h, 10 µM",,90.4%
CCCc1n[nH]c(=S)n1CC(=O)NCc1ccc(Oc2cc(C)ccc2C)nc1 [CBK297742],"viability at 28.5 h, 10 µM",,87.5%
CCCc1n[nH]c(=S)n1CC(=O)NCc1ccc(OCCC(C)C)c(OC)c1 [CBK297743],"viability at 28.5 h, 10 µM",,84.4%
CCCC(=O)NC1CCN(C(=O)c2snnc2CC)CC1 [CBK297744],"viability at 28.5 h, 10 µM",,97.3%
COc1ccc(NS(=O)(=O)c2ccc3c(c2)N(CC(=O)O)C(=O)CO3)cc1NS(C)(=O)=O [CBK297745],"viability at 28.5 h, 10 µM",,90.1%
CC(NC(=O)CCCC(=O)c1cccs1)c1cccc2ccccc12 (stereo not drawn) [CBK297748],"viability at 28.5 h, 10 µM",,105%
CC(CNC(=O)c1ccc([N+](=O)[O-])o1)N1CCc2sccc2C1 (stereo not drawn) [CBK297749],"viability at 28.5 h, 10 µM",,87.9%
Cc1cc(N(C)Cc2ccccc2Br)nc(N)n1 [CBK297753],"viability at 28.5 h, 10 µM",,70.2%
Cn1c(Sc2ccc(C#N)cn2)nnc1-c1ccco1 [CBK297756],"viability at 28.5 h, 10 µM",,111%
C=CCn1c(-c2sc(NC(=O)c3[nH]c4c(c3C)C(=O)CC(C)(C)C4)nc2C)n[nH]c1=S [CBK297757],"viability at 28.5 h, 10 µM",,91%
Cc1csc(NC(=O)c2c(C)c(C)n[nH]c2=O)n1 [CBK297759],"viability at 28.5 h, 10 µM",,84.4%
CCN(CC(=O)NCc1cccs1)C(=O)CN1CCCC1c1ccc(C)cc1 (stereo not drawn) [CBK297761],"viability at 28.5 h, 10 µM",,104%
Cc1c(C(=O)Nc2cccc(S(=O)(=O)NCc3ccco3)c2)cnn1-c1ccccc1 [CBK297762],"viability at 28.5 h, 10 µM",,89.7%
COc1ccc(C(=O)O)cc1S(=O)(=O)Nc1cccc(C=Cc2ccccn2)c1 [CBK297763],"viability at 28.5 h, 10 µM",,110%
O=C(Cn1c(-c2cccs2)n[nH]c1=S)N1CCC(c2nc3cc(Cl)ccc3o2)CC1 [CBK297765],"viability at 28.5 h, 10 µM",,95%
Cc1ccc(S(=O)(=O)Nc2ccc(C(C)C)cc2)cc1C(=O)O [CBK297766],"viability at 28.5 h, 10 µM",,84.2%
CC(=O)NCCNC(=O)c1cc(Br)c[nH]1 [CBK297767],"viability at 28.5 h, 10 µM",,88.3%
Cc1ccc(CN2CCCN(C(=O)Cn3nc4ccccn4c3=O)CC2)cc1 [CBK297768],"viability at 28.5 h, 10 µM",,79.7%
CCCCN(C(=O)C(F)(F)c1ccccc1)c1c(N)n(CCC)c(=O)[nH]c1=O [CBK297769],"viability at 28.5 h, 10 µM",,91.4%
